Consider 23 compounds from patent US9199963B2, “Heterocyclic compound” (Takeda Pharmaceutical Company Limited, priority 2013, dated 2015).

One experiment addresses T1, human MCHR1 (Homo sapiens, UniProt Q99705).
T1 construct: expressed in transfected cells; host or cells: CHO dhfr- cells, clone #4
Briefly: MCH receptor 1 antagonistic activity using Ca2+ mobilization assay. Format: cell-based. As to conditions: test compound 0.1 μM; ligand MCH (4-19) 2 nM; human MCHR1-expressing CHO cells (clone #4); read-out: Inhibition rate % (0.1 μM). As for the experimental part:
Measurement of MCH Receptor 1 Antagonistic Activity of Test Compound Using Ca^2+ Mobilization Assay
Using an expression vector plasmid introduced with human MCHR1 gene for expression in animal cells, human MCHR1 gene was introduced into CHO cells (CHO dhfr^−) by Lipofectamine LTX (Invitrogen). The cells were cultured in selection MEMα medium [445 mL of MEMα medium without nucleic acid and added with 5 mL of Penicillin-Streptomycin (Invitrogen) and 50 mL of dialyzed fetal bovine serum]. Colony 24 clones grown in the selection medium, which were human MCHR1 gene-expressing CHO cell candidates, were selected. […] An integrated dispensing function fluorometer (CellLux, PerkinElmer) was used for Ca^2+ mobilization assay. […] The medium was removed, and the cells were washed with phosphate buffered saline (PBS). A Ca^2+ indicator dye reagent (DOJINDO LABORATORIES, Ca screening no-wash kit Fluo4) was added at 100 μL/well, and the dye was allowed to penetrate into the cells for 30 min in an incubator at 5% CO2, 37° C. The plate was set on a plate reader. First, a test compound solution diluted with an assay buffer [10 mM HEPES (pH 7.4), 1× assay buffer containing 0.1% BSA (DOJINDO LABORATORIES, attached to Ca screening no-wash kit Fluo4)] or DMSO solution was added at 50 μL/well, and then ligand MCH (4-19) peptide (final concentration 2 nM) diluted with assay buffer or DMSO was added at 50 μL/well, during which changes in intracellular fluorescence were measured at 2 second intervals.

For experiment [1], the target named is T2, human MCH receptor 1 (MCHR1) (Homo sapiens, UniProt Q99705).
T2 construct: expressed in transfected cells; host or cells: CHO cell clone 57 (described in WO01/82925); membrane fraction
Briefly: Human MCH receptor 1 (MCHR1) competitive inhibitory activity using binding assay. As to conditions: test compound 0.1 μM; [125I]-MCH (4-19); human MCHR1-expressing CHO cellular membrane fraction; read-out: Binding inhibition rate % (0.1 μM). As for the experimental part: Determination of Human MCH Receptor 1 (MCHR1) Competitive Inhibitory Activity of Test Compound Using Binding Assay
1. Preparation of Membrane Fraction
In phosphate buffered saline (pH 7.4) supplemented with 5 mM EDTA (ethylenediaminetetraacetic acid) were respectively suspended human MCHR1-expressing CHO cells (1×10^8 cells) and centrifuged. Homogenate buffer (10 mL, 10 mM NaHCO3, 5 mM EDTA, pH 7.5, 0.5 mM PMSF (phenylmethylsulfonyl fluoride), 20 mg/L leupeptin, 4 mg/L E-64, 1 mg/L pepstatin A) was added to the pellets of the cells and, using Polytron Homogenizer, the mixture was homogenated. The supernatant obtained after centrifugation at 400×g for 10 min was further centrifuged at 100,000×g for 1 hr to give precipitate of the membrane fraction. The precipitate was suspended in 2 mL of assay buffer [20 mM Tris-HCl (pH 7.5), 5 mM EDTA, 0.5 mM PMSF, 20 mg/L leupeptin, 4 mg/L E-64, 1 mg/L pepstatin A]. The membrane fractions were suspended in assay buffer to a protein concentration of 2 mg/mL, and after dispensing, preserved at −80° C. and used upon thawing each time when in use.
The MCHR1 ligand binding inhibitory activity of the test compound was determined as follows.
The mixture was reacted with stirring at room temperature for 1 hr, and the plate was set on FilterMate Harvester (PerkinElmer). […] The glass filter plate was dried, MicroScint 0 (PerkinElmer) was added at 25 μL/well, and the resulting radioactivity was measured by TopCount liquid scintillation counter (PerkinElmer). The binding inhibition rate of the test compound was calculated by the following formula. Binding inhibition(%)=100−(radioactivity upon addition of test compound and hot MCH−radioactivity upon addition of cold MCH and hot MCH solution)/(radioactivity upon addition of DMSO solution and hot MCH−radioactivity upon addition of cold MCH and hot MCH solution)×100

T1 sequence (Q99705 whole entry): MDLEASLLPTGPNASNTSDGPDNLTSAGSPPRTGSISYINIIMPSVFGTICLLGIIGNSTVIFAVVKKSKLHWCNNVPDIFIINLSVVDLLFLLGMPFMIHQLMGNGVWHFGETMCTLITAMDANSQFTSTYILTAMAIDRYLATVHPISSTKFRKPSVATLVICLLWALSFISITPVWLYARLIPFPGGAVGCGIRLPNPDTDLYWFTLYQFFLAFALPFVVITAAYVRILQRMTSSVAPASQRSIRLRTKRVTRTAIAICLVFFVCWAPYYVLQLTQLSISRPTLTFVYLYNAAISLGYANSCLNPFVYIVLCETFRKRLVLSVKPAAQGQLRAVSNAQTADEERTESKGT
T2 sequence (Q99705 whole entry): as above

One may read the inhibition as how much of the control response was suppressed. As to `Cc1c2cc(-n3ccc(OCc4ccc(Cl)s4)cc3=O)ccc2nn1C1CC1` [Example 8, 4-[(5-chlorothiophen-2-yl)methoxy]-1-(2-cyclopropyl-3-methyl-2H-indazol-5-yl)pyridin-2(1H)-one], the inhibition at 0.1 µM stood at 55% on human MCHR1 and 68% in experiment [1].
Regarding `Cc1c2cc(-n3ccc(OCc4ccc(Br)cn4)cc3=O)ccc2nn1C1CC1` [Example 28, 4-[(5-bromopyridin-2-yl)methoxy]-1-(2-cyclopropyl-3-methyl-2H-indazol-5-yl)pyridin-2(1H)-one], the inhibition at 0.1 µM came out at 93% at human MCHR1 and 68% in experiment [1].
With `Cc1c2cc(-n3ccc(OCc4cc(C(F)(F)F)cs4)cc3=O)ccc2nn1C1CC1` [Example 43, 1-(2-cyclopropyl-3-methyl-2H-indazol-5-yl)-4-{[4-(trifluoromethyl)thiophen-2-yl]methoxy}pyridin-2(1H)-one], the figures for the inhibition at 0.1 µM (at human MCHR1; in experiment [1]) were 72% and 71%, respectively.
The corresponding values for `Cc1c2cc(-n3ccc(OCc4csc(C(F)(F)F)n4)cc3=O)ccc2nn1C` [Example 39, 1-(2,3-dimethyl-2H-indazol-5-yl)-4-{[2-(trifluoromethyl)-1,3-thiazol-4-yl]methoxy}pyridin-2(1H)-one] are 71% and 33%.
The corresponding values for `Cc1c2cc(-n3ccc(OCc4ccc(Br)cn4)cc3=O)ccc2nn1C` [Example 23, 4-[(5-bromopyridin-2-yl)methoxy]-1-(2,3-dimethyl-2H-indazol-5-yl)pyridin-2(1H)-one] are 77% and 57%.
The corresponding values for `Cc1c2cc(-n3ccc(OCc4ccc(Br)s4)cc3=O)ccc2nn1C` [Example 27, 4-[(5-bromothiophen-2-yl)methoxy]-1-(2,3-dimethyl-2H-indazol-5-yl)pyridin-2(1H)-one] are 92% and 60%.
Regarding `CCn1nc2ccc(-n3ccc(OCc4ccc(Cl)cc4)cc3=O)cc2c1C` [Example 2, 4-[(4-chlorobenzyl)oxy]-1-(2-ethyl-3-methyl-2H-indazol-5-yl)pyridin-2(1H)-one], the figures for the inhibition at 0.1 µM (on human MCHR1; in experiment [1]) were 73% and 43%, respectively.
Regarding `Cc1c2cc(-n3ccc(OCc4ccc(C(F)(F)F)s4)cc3=O)ccc2nn1C` [Example 10, 1-(2,3-dimethyl-2H-indazol-5-yl)-4-{[5-(trifluoromethyl)thiophen-2-yl]methoxy}pyridin-2(1H)-one], the inhibition at 0.1 µM amounted to 51% at human MCHR1 and 39% in experiment [1].
As for `CCCn1nc2ccc(-n3ccc(OCc4ccc(Cl)cc4)cc3=O)cc2c1C` [Example 3, 4-[(4-chlorobenzyl)oxy]-1-(3-methyl-2-propyl-2H-indazol-5-yl)pyridin-2(1H)-one], the inhibition at 0.1 µM in experiment [1] is 37%.
Turning to `Cc1c2cc(-n3ccc(OCc4ccc(F)cc4)cc3=O)ccc2nn1C` [Example 42, 1-(2,3-dimethyl-2H-indazol-5-yl)-4-[(4-fluorobenzyl)oxy]pyridin-2(1H)-one], the inhibition at 0.1 µM came out at 65% on human MCHR1 and 46% in experiment [1].
As for `Cc1c2cc(-n3ccc(OCc4ccccc4)cc3=O)ccc2nn1C1CC1` [Example 7, 4-(benzyloxy)-1-(2-cyclopropyl-3-methyl-2H-indazol-5-yl)pyridin-2(1H)-one], the values for the inhibition at 0.1 µM (at human MCHR1; in experiment [1]) were 66% and 44%, respectively.
On to `Cc1c2cc(-n3ccc(OCc4ccccc4)cc3=O)ccc2nn1C` [Example 9, 4-(benzyloxy)-1-(2,3-dimethyl-2H-indazol-5-yl)pyridin-2(1H)-one], for which, in experiment [1], the inhibition at 0.1 µM was determined as 36%.
Take `Cc1c2cc(-n3ccc(OCc4cc5ccccc5o4)cc3=O)ccc2nn1C` [Example 16, 4-(1-benzofuran-2-ylmethoxy)-1-(2,3-dimethyl-2H-indazol-5-yl)pyridin-2(1H)-one]: the inhibition at 0.1 µM was found to be 57% at human MCHR1 and 47% in experiment [1].
The corresponding values for `Cc1c2cc(-n3ccc(OCc4ccc(C(F)(F)F)s4)cc3=O)ccc2nn1C1CC1` [Example 45, 1-(2-cyclopropyl-3-methyl-2H-indazol-5-yl)-4-{[5-(trifluoromethyl)thiophen-2-yl]methoxy}pyridin-2(1H)-one] are 43% and 49%.
Consider `Cc1c2cc(-n3ccc(OCc4nc(C(F)(F)F)cs4)cc3=O)ccc2nn1C1CC1` [Example 33, 1-(2-cyclopropyl-3-methyl-2H-indazol-5-yl)-4-{[4-(trifluoromethyl)-1,3-thiazol-2-yl]methoxy}pyridin-2(1H)-one], for which the inhibition at 0.1 µM on human MCHR1 was 96%; in experiment [1], 76%.
In the same order, the values of `Cc1c2cc(-n3ccc(OCc4ccc(Cl)cc4)cc3=O)ccc2nn1C1CC1` [Example 5, 4-[(4-chlorobenzyl)oxy]-1-(2-cyclopropyl-3-methyl-2H-indazol-5-yl)pyridin-2(1H)-one] are 86% and 78%.
In the same order, the values of `Cc1c2cc(-n3ccc(OCc4cccc(Cl)c4)cc3=O)ccc2nn1C` [Example 12, 4-[(3-chlorobenzyl)oxy]-1-(2,3-dimethyl-2H-indazol-5-yl)pyridin-2(1H)-one] are 38% and 42%.
The corresponding values for `Cc1c2cc(-n3ccc(OCc4ccc(Cl)cn4)cc3=O)ccc2nn1C1CC1` [Example 18, 4-[(5-chloropyridin-2-yl)methoxy]-1-(2-cyclopropyl-3-methyl-2H-indazol-5-yl)pyridin-2(1H)-one] are 63% and 45%.
In the case of `Cc1c2cc(-n3ccc(OCc4nc(Br)cs4)cc3=O)ccc2nn1C` [Example 30, 4-[(4-bromo-1,3-thiazol-2-yl)methoxy]-1-(2,3-dimethyl-2H-indazol-5-yl)pyridin-2(1H)-one], the inhibition at 0.1 µM was determined as 89% on human MCHR1 and 34% in experiment [1].
The corresponding values for `Cc1c2cc(-n3ccc(OCc4nc(C(F)(F)F)cs4)cc3=O)ccc2nn1C` [Example 38, 1-(2,3-dimethyl-2H-indazol-5-yl)-4-{[4-(trifluoromethyl)-1,3-thiazol-2-yl]methoxy}pyridin-2(1H)-one] are 78% and 45%.
The corresponding values for `CCn1nc2ccc(-n3ccc(OCc4nc(C(F)(F)F)cs4)cc3=O)cc2c1C` [Example 36, 1-(2-ethyl-3-methyl-2H-indazol-5-yl)-4-{[4-(trifluoromethyl)-1,3-thiazol-2-yl]methoxy}pyridin-2(1H)-one] are 83% and 37%.
Take `Cc1c2c(F)c(-n3ccc(OCc4ccc(Cl)cc4)cc3=O)ccc2nn1C` [Example 32, 4-[(4-chlorobenzyl)oxy]-1-(4-fluoro-2,3-dimethyl-2H-indazol-5-yl)pyridin-2(1H)-one]: the inhibition at 0.1 µM in experiment [1] amounted to 54%.
As for `Cc1c2cc(-n3ccc(OCc4cc(C(F)(F)F)cs4)cc3=O)ccc2nn1C` [Example 41, 1-(2,3-dimethyl-2H-indazol-5-yl)-4-{[4-(trifluoromethyl)thiophen-2-yl]methoxy}pyridin-2(1H)-one], the inhibition at 0.1 µM at human MCHR1 came out at 70%; in experiment [1] it was 55%.
